Laboratory results reported in patent US5962504A, “Substituted 2-pyrrolidinone activators of PKC” (Georgetown University, priority 1998, dated 1999).

What was measured:
PKC [1] = test: ability of representative compounds to activate PKC (Ki, Table 1; procedure similar to Kozikowski et al. J. Med. Chem. 1997); format: binding; conditions: read-out: Ki ± SEM
PKC [2] = conditions: background statement; cited from earlier work

SMILES | Ki (PKC [1]) | PKC activation, isozyme selectivity (PKC [2])
CC(C)[C@H]1C(=O)N[C@H](CO)[C@@H]1c1ccccc1 [Compound 4a, (3R, 4S, 5S)-3-Isopropyl-4-phenyl-5-(hydroxymethyl)pyrrolidin-2-one] | 129 µM | –
CCCCCCCCCc1ccc([C@@H]2[C@@H](C(C)C)C(=O)N[C@@H]2CO)cc1 [Compound 4b, (3R, 4S, 5S)-3-Isopropyl-4-(4-nonylphenyl)-5-(hydroxymethyl)-pyrrolidin-2-one] | 2.3 ± 0.2 µM | –
CC(C)[C@H]1C(=O)N[C@H](CO)[C@@H]1c1cccc2ccccc12 [Compound 11a, (3R,4S,5S)-3-Isopropyl-4-(1-naphthyl)-5-(hydroxymethyl)pyrrolidin-2-one] | 5.5 µM | –
CCCCCC(=O)Oc1ccc([C@@H]2[C@@H](C(C)C)C(=O)N[C@@H]2CO)c2ccccc12 [Compound 11b, (3R,4S,5S)-3-Isopropyl-4-(4-hexanoyloxynaphth-1-yl)-5-(hydroxymethyl)pyrrolidin-2-one] | 0.5 ± 0.04 µM | –
CC1=C[C@H]2[C@@]3(O)[C@H](C)C[C@]4(OC(=O)Cc5ccccc5)[C@H]([C@@H]3C=C(CO)C[C@]2(O)C1=O)C4(C)C [Dpp, 12-deoxyphorbol 13-phenylacetate] | – | isozyme-selective activators of PKC
